# Measured values taken from patent US10646484B2, “Methods to treat opioid use disorder” (Indivior UK Limited, priority 2017, dated 2020).
# System: opioid-dependent subjects
# Assay: Concentration-QT analysis pooled across clinical studies
# Method: A concentration QT analysis was performed for the clinical studies conducted with Formulation D. Matching buprenorphine and norbuprenorphine plasma concentrations and 12-lead electrocardiograms (ECGs) were pooled across clinical studies conducted with Formulation D in opioid-dependent subjects. Concentration-QT models were developed to describe the effects of buprenorphine and norbuprenorphine on corrected QT (QTc) interval, after accounting for the effect of relevant concomitant medications and illicit drug use on heart rate and/or QT in opioid-dependent subjects. Data from the following studies were included in the analysis:
# Stable doses of SUBUTEX® tablets ranged between 8 and 24 mg depending on the dose cohort.
# Twenty subjects received SUBOXONE® film alone.
# Subjects were inducted using SUBOXONE® film for 3 days, followed by 4- to 11-day SUBOXONE® film dose adjustment at doses ranging from 8 to 24 mg QD. SUBOXONE® film was tapered in subjects after amendment of study protocol (Day 1: 6 mg, Days 2 and 3: 4 mg, Days 4 and 5: 2 mg).
# The following covariates were evaluated on alpha given their potential to affect heart rate: withdrawal symptoms (as measured by Clinical Opiate Withdrawal Scale (COWS)), clonidine and methocarbamol (used to treat withdrawal symptoms), cocaine, phencyclidine, cannabinoids, barbiturates, and methamphetamines (illicit drugs), amphetamines (taken for therapeutic, e.g., attention-deficit/hyperactivity disorder or illicit use), as well as albuterol (known to increase heart rate).
# The following covariates were evaluated on QTcAbs: sex, age, opioids known to have an effect on QTc (methadone, oxycodone), opioids that may have an effect on QTc (hydrocodone, morphine, hydromorphone, oxymorphone, heroin, codeine), or opioids (as a general class, with exact type not recorded in CRF), benzodiazepines, barbiturates, triplicate vs single ECG readings, central vs non-centrally read ECGs, and Holter vs non-Holter. Covariates were selected using individual steps of backward elimination. The concentration-related slope was added and the model was refined. Bootstrap and visual predictive checks were conducted to evaluate model performance.
# In addition, the bias-corrected two-sided 90% confidence interval of the Delta QTc distribution was determined using the boot package in R (boot( ) function), where an additional nonparametric bootstrap was performed. If the upper limit of the 90% confidence interval was <10 msec, then an effect of Formulation D on QTc was to be ruled out.
# [1] = concentration-QT model covariate
Compound,change in QTc associated with concomitant or illicit drug (covariate on QTc) [1],"change in QTc associated with concomitant or illicit drug (covariate on QTc) (human, in vivo)"
COC(=O)[C@H]1[C@@H](OC(=O)c2ccccc2)C[C@@H]2CC[C@H]1N2C [cocaine],+1.7 msec,
COc1ccc2c3c1O[C@H]1[C@@H](O)C=C[C@H]4[C@@H](C2)N(C)CC[C@@]341 [codeine],+1.3 msec,
OCCOCCN1CCN(C(c2ccccc2)c2ccc(Cl)cc2)CC1 (stereo not drawn) [hydroxyzine],,+1.7 msec
CCC(=O)C(CC(C)N(C)C)(c1ccccc1)c1ccccc1 (stereo not drawn) [methadone],+6.1 msec,
COc1ccc2c3c1O[C@H]1C(=O)CC[C@@]4(O)[C@@H](C2)N(C)CC[C@]314 [oxycodone],-1.5 ms,
c1ccc(C2(N3CCCCC3)CCCCC2)cc1 [phencyclidine],+3.4 msec,
